{"source": "EPA's ToxValDB 9.5 (doi:10.2903/j.efsa.2015.4077)", "key": {"Typhlodromus pyri": {"system": "Typhlodromus pyri", "experiment": "LR50; higher = less toxic", "details": "not reported; mortality"}, "Aphidius rhopalosiphi": {"system": "Aphidius rhopalosiphi", "experiment": "LR50; higher = less toxic", "details": "not reported; mortality"}, "Anas platyrhynchos": {"system": "Anas platyrhynchos", "details": "reproductive"}, "Colinus virginianus": {"system": "Colinus virginianus", "details": "acute, oral"}, "Pimephales promelas": {"system": "Pimephales promelas", "details": "chronic/long-term; duration: 35 days; other"}, "Oncorhynchus mykiss": {"system": "Oncorhynchus mykiss", "details": "acute; duration: 96 hours; mortality"}, "Pontoscolex corethrurus": {"system": "Pontoscolex corethrurus", "details": "acute; duration: 14 days; mortality"}, "Daphnia magna": {"system": "Daphnia magna", "details": "chronic/long-term; duration: 21 days"}, "Canidae": {"system": "Canidae", "details": "chronic; duration: 1 years; oral; Dog Other; organ weight"}, "Apis mellifera": {"system": "Apis mellifera", "details": "acute; oral; unspecified; mortality"}}}
{"smiles": "CC(C)N1C(=O)c2ccccc2NS1(=O)=O", "note": "[Bentazone]", "values": [{"measurement": "LR50", "setting": "Typhlodromus pyri", "value": 2800, "unit": "g/ha"}, {"measurement": "LR50", "setting": "Aphidius rhopalosiphi", "value": 699, "unit": "g/ha"}, {"measurement": "NOAEL", "setting": "Anas platyrhynchos", "value": 56, "unit": "mg/kg-day"}, {"measurement": "LD50", "setting": "Colinus virginianus", "value": 565, "unit": "mg/kg-day"}, {"measurement": "LC50", "setting": "Colinus virginianus; diet", "value": "> 500", "unit": "mg/kg"}, {"measurement": "NOEC", "setting": "Pimephales promelas", "value": 10, "unit": "mg/L"}, {"measurement": "LC50", "setting": "Oncorhynchus mykiss", "value": "> 48.6", "unit": "µg/mL"}, {"measurement": "LC50", "setting": "Pontoscolex corethrurus", "value": "> 1000", "unit": "mg/kg"}, {"measurement": "NOEC", "setting": "Daphnia magna", "value": "> 101", "unit": "mg/L"}, {"measurement": "NOAEL", "setting": "Canidae", "value": 13, "unit": "mg/kg-day"}, {"measurement": "LD50", "setting": "Rattus norvegicus; acute, M/F", "value": 1640, "unit": "mg/kg-day"}, {"measurement": "NOAEL", "setting": "Rattus norvegicus; chronic, duration: 2 years, other", "value": 9, "unit": "mg/kg-day"}, {"measurement": "NOAEL", "setting": "Rattus norvegicus; developmental, development", "value": 100, "unit": "mg/kg-day"}, {"measurement": "NOAEL", "setting": "Rattus norvegicus; reproduction developmental", "value": 10.3, "unit": "mg/kg-day"}, {"measurement": "LD50", "setting": "Apis mellifera", "value": "> 200", "unit": "µg/piece"}]}
